Test results from US6451814B1, “Heterocyclic β-3 adrenergic receptor agonists” (Wyeth, priority 2000, dated 2002).
Several values for one entry are separate records, joined by “and”; a condition that tells them apart may be missing. Equal values may be shown once. Read-outs that look alike come from different tables or passages of the source.

Experiments:
[1] = target: T1, human β3-adrenergic receptor (Homo sapiens, UniProt P13945); experiment: cAMP response (SPA kit) in CHO cells transfected with human β3 adrenergic receptor; type: cell-based; settings: for EC50: CHO cells expressing human β3-AR, 10^-9 M to 10^-5 M, 30 min at 37° C., cAMP by SPA; for IA(β3): maximal response of compound compared to maximal response of isoproterenol at 10^-5 M, CHO cells, human β3-AR
T1 construct: Full length β3 AR clones (402 amino acids) containing the last 6 amino acids of hβ3—AR are prepared; expressed in transfected cells; host or cells: CHO cells
T1 sequence (P13945 whole entry): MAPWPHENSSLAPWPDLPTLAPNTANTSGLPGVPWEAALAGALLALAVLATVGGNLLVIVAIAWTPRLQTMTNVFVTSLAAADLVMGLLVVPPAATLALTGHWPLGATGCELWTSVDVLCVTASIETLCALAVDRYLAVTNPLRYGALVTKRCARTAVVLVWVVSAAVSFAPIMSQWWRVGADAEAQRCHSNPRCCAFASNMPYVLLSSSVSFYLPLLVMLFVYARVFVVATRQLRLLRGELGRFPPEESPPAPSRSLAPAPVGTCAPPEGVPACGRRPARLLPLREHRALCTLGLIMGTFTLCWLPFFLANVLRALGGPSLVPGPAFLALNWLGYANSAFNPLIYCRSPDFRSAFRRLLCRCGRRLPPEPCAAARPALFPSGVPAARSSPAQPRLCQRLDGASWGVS

In the case of O=C(NCc1ccc(-n2cccn2)cc1C(F)(F)F)N1CCC(Nc2ccc(CCNC[C@H](O)COc3ccc(O)cc3)cc2)CC1 [Example 34, 4-(4-{2-[(2S)-2-Hydroxy-3-(4-hydroxy-phenoxy)-propylamino]-ethyl}-phenylamino)-piperidine-1-carboxylic Acid 4-pyrazol-1-yl-2-trifluoromethyl-benzylamide], the EC50 ([1]; read-out: EC50(β3)) is reported as 0.062 µM, the “IA(β3)” value [1] is reported as 0.83 and the melting point is reported as 96 to 100 °C.
For COc1ccc(C2CCN(C(=O)N3CCC(Nc4ccc(CCNC[C@H](O)COc5ccc(O)cc5)cc4)CC3)CC2)cc1OC1CCCC1 [Example 17, [4-(3-Cyclopentyloxy-4-methoxy-phenyl)-piperidin-1-yl]-[4-(4-{2-[(2S)-2-hydroxy-3-(4-hydroxy-phenoxy)-propylamino]-ethyl}-phenylamino)-piperidin-1-yl]-methanone], the EC50 ([1]; read-out: EC50(β3)) was 0.015 µM, the “IA(β3)” value [1] was 0.63 and the melting point was 92 to 95 °C.
For O=C(c1c[nH]c2ccccc12)N1CCC(Nc2ccc(CCNC[C@H](O)COc3ccc(O)cc3)cc2)CC1 [Example 99, [4-(4-{2-[(2S)-2-Hydroxy-3-(4-hydroxy-phenoxy)-propylamino]-ethyl}-phenylamino)-piperidin-1-yl]-(1H-indol-3-yl)-methanone], the EC50 ([1]; read-out: EC50(β3)) was 0.009 µM, the “IA(β3)” value [1] was 1.08 and the melting point was 90 to 92 °C.
In the case of CCOC(=O)C1CCN(C(=O)N2CCC(Nc3ccc(CCNC[C@H](O)c4ccc(O)c(NS(C)(=O)=O)c4)cc3)CC2)CC1 [Example 51, 1-[4-(4-{2-[(2R)-2-Hydroxy-2-(4-hydroxy-3-methanesulfonylamino-phenyl)-ethylamino]-ethyl}-phenylamino)-piperidine-1-carbonyl]-piperidine-4-carboxylic Acid Ethyl Ester], the EC50 ([1]; read-out: EC50(β3)) is reported as 0.001 µM, the “IA(β3)” value [1] is reported as 0.82 and the melting point is reported as 93 to 97 °C.
With Cc1ccc(C(=O)CCNC(=O)N2CCC(Nc3ccc(CCNC[C@H](O)COc4ccc(O)cc4)cc3)CC2)cc1 [Example 28] the EC50 ([1]; read-out: EC50(β3)) was 0.01 µM, the “IA(β3)” value [1] was 0.76 and the melting point was 85 to 89 °C.
For CCCCCCNC(=O)Nc1ccc(CNC(=O)N2CCC(Nc3ccc(CCNC[C@H](O)COc4ccc(O)cc4)cc3)CC2)cc1 [Example 67, 4-(4-{2-[(2S)-2-Hydroxy-3-(4-hydroxy-phenoxy)-propylamino]-ethyl}-phenylamino)-piperidine-1-carboxylic Acid 4-(3-hexyl-ureido)-benzylamide], the EC50 ([1]; read-out: EC50(β3)) was 0.029 µM, the “IA(β3)” value [1] was 0.92 and the melting point was 141 to 143 °C.
For CN(C)C(=O)Oc1ccc(CCNC(=O)N2CCC(Nc3ccc(CCNC[C@H](O)COc4ccc(O)cc4)cc3)CC2)cc1 [Example 74, Dimethyl-carbamic Acid 4-(2-{[4-(4-{2-[(2S)-2-hydroxy-3-(4-hydroxy-phenoxy)-propylamino]-ethyl}-phenylamino)-piperidine-1-carbonyl]-amino}-ethyl)-phenyl Ester], the EC50 ([1]; EC50(β3, μM)) was 0.045 µM, the “IA(β3)” value [1] was 0.88 and the melting point was 86 to 88 °C.
For CS(=O)(=O)Nc1cc([C@@H](O)CNCCc2ccc(NC3CCN(C(=O)NCc4cc(F)ccc4F)CC3)cc2)ccc1O [Example 76, 4-(4-{2-[(2R)-2-Hydroxy-2-(4-hydroxY-3-methanesulfonylamino-phenyl)-ethylamino]-ethyl}-phenylamino)-piperidine-1-carboxylic Acid 2,5-difluoro-benzylamide], the “IA(β3)” value [1] was 1 and the melting point was 116 to 118 °C.
With O=C(NCCc1ccc(F)cc1)N1CCC(Nc2ccc(CCNC[C@H](O)COc3ccc(O)cc3)cc2)CC1 [Example 15, 4-(4-{2-[(2S)-2-Hydroxy-3-(4-hydroxy-phenoxy)-propylamino]-ethyl}-phenylamino)-piperidine-1-carboxylic Acid [2-(4-fluoro-phenyl)-ethyl]-amide] the EC50 ([1]; read-out: EC50(β3)) was 0.034 µM, the “IA(β3)” value [1] was 0.91 and the melting point was 73 to 77 °C.
In the case of O=C(NCc1c(F)cccc1F)N1CCC(Nc2ccc(CCNC[C@H](O)COc3ccc(O)cc3)cc2)CC1 [Example 32, 4-(4-{2-[(2S)-2-Hydroxy-3-(4-hydroxy-phenoxy)-propylamino]-ethyl}-phenylamino)-piperidine-1-carboxylic Acid 2,6-difluoro-benzylamide], the “IA(β3)” value [1] is reported as 1.04 and 0.77 and the melting point is reported as 80 to 84 °C.
For Cc1ccc(CCCNC(=O)N2CCC(Nc3ccc(CCNC[C@H](O)COc4ccc(O)cc4)cc3)CC2)cc1 [Example 29, 4-(4-{2-[(2S)-2-Hydroxy-3-(4-hydroxy-phenoxy)-propylamino]-ethyl}-phenylamino)-piperidine-1-carboxylic Acid (3-p-tolyl-propyl)-amide], the EC50 ([1]; read-out: EC50(β3)) was 0.043 µM, the “IA(β3)” value [1] was 1 and the melting point was 69 to 72 °C.
For CCCCCCCCNC(=O)N1CCC(Nc2ccc(CCNC[C@H](O)c3ccc(O)c(NS(C)(=O)=O)c3)cc2)CC1 [Example 59, 4-(4-{2-[(2R)-2-Hydroxy-2-(4-hydroxy-3-methanesulfonylamino-phenyl)-ethylamino]-ethyl}-phenylamino)-piperidine-1-carboxylic Acidoctylamide], the EC50 ([1]; read-out: EC50(β3)) was 0.003 µM, the “IA(β3)” value [1] was 1 and the melting point was 160 to 162 °C.
For O=C(NCCCC1CCCCC1)N1CCC(Nc2ccc(CCNC[C@H](O)COc3ccc(O)cc3)cc2)CC1 [Example 68, 4-(4-{2-[(2S)-2-Hydroxy-3-(4-hydroxy-phenoxy)-propylamino]-ethyl}-phenylamino)-piperidine-1-carboxylic Acid (3-cyclohexyl-propyl)-amide], the EC50 ([1]; read-out: EC50(β3)) was 0.039 µM, the “IA(β3)” value [1] was 1.1 and the melting point was 69 to 71 °C.
For CCCCCCCCNC(=O)N1CCC(Nc2ccc(CCNC[C@H](O)COc3cccc4[nH]c(=O)[nH]c34)cc2)CC1 [Example 60, 4-(4-{2-[(2S)-2-Hydroxy-3-(2-oxo-2,3-dihydro-1H-benzoimidazol-4-yloxy)-propylamino]-ethyl}-phenylamino)-piperidine-1-carboxylic Acidoctylamide], the EC50 ([1]; read-out: EC50(β3)) was 0.012 µM, the “IA(β3)” value [1] was 0.45 and the melting point was 113 to 115 °C.
With O=C(NCc1ccccc1F)N1CCC(Nc2ccc(CCNC[C@H](O)COc3ccc(O)cc3)cc2)CC1 [Example 26, 4-(4-{2-[(2S)-2-Hydroxy-3-(4-hydroxy-phenoxy)-propylamino]-ethyl}-phenylamino)-piperidine-1-carboxylic Acid 2-fluoro-benzylamide] the “IA(β3)” value [1] was 0.91 and the melting point was 79 to 84 °C.
With O=C(NCC(c1ccccc1)c1ccccc1)N1CCC(Nc2ccc(CCNC[C@H](O)COc3ccc(O)cc3)cc2)CC1 [Example 31, 4-(4-{2-[(2S)-2-Hydroxy-3-(4-hydroxy-phenoxy)-propylamino]-ethyl}-phenylamino)-piperidine-1-carboxylic Acid (2,2-diphenyl-ethyl)-amide] the EC50 ([1]; read-out: EC50(β3)) was 0.136 µM and 0.068 µM, the “IA(β3)” value [1] was 0.69 and 0.4 and the melting point was 91 to 94 °C.
For O=C(NCCCc1cccs1)N1CCC(Nc2ccc(CCNC[C@H](O)COc3ccc(O)cc3)cc2)CC1 [Example 23, 4-(4-{2-[(2S)-2-Hydroxy-3-(4-hydroxy-phenoxy)-propylamino]-ethyl}-phenylamino)-piperidine-1-carboxylic Acid (3-thiophen-2-yl-propyl)-amide], the EC50 ([1]; read-out: EC50(β3)) was 0.01 µM, the “IA(β3)” value [1] was 0.88 and the melting point was 73 to 77 °C.
In the case of O=C([C@@H]1CCCN1S(=O)(=O)c1ccc(F)cc1)N1CCC(Nc2ccc(CCNC[C@H](O)COc3ccc(O)cc3)cc2)CC1 [Example 104, [(2S)-1-(4-Fluoro-benzenesulfonyl)-pyrrolidin-2-yl]-[4-(4-{2-[(2S)-2-hydroxy-3-(4-hydroxy-phenoxy)-propylamino]-ethyl}-phenylamino)-piperidin-1-yl]-methanone], the EC50 ([1]; read-out: EC50(β3)) is reported as 0.085 µM, the “IA(β3)” value [1] is reported as 0.97 and the melting point is reported as 87 to 89 °C.
For CCc1ccc(CCNC(=O)N2CCC(Nc3ccc(CCNC[C@H](O)COc4ccc(O)cc4)cc3)CC2)cc1 [Example 30, 4-(4-{2-[(2S)-2-Hydroxy-3-(4-hydroxy-phenoxy)-propylamino]-ethyl}-phenylamino)-piperidine-1-carboxylic Acid [2-(4-ethyl-phenyl)-ethyl]-amide], the EC50 ([1]; read-out: EC50(β3)) was 0.034 µM and 0.049 µM and 0.022 µM and 0.098 µM, the “IA(β3)” value [1] was 1 and 0.87 and 0.84 and 0.65 and the melting point was 79 to 81 °C.
For CCCCCC(=O)N1CCC(Nc2ccc(CCNC[C@H](O)COc3ccc(O)cc3)cc2)CC1 [Example 103, 1-[4-(4-{2-[(2S)-2-Hydroxy-3-(4-hydroxy-phenoxy)-propylamino]-ethyl}-phenylamino)-piperidin-1-yl]-hexan-1-one], the EC50 ([1]; read-out: EC50(β3)) was 0.074 µM, the “IA(β3)” value [1] was 0.9 and the melting point was 57 to 59 °C.
For CCOC(=O)C1CCN(C(=O)N2CCC(Nc3ccc(CCNC[C@H](O)COc4ccc(O)cc4)cc3)CC2)CC1 [Example 61, 1-[4-(4-{2-[(2S)-2-Hydroxy-3-(4-hydroxy-phenoxy)-propylamino]-ethyl}-phenylamino)-piperidine-1-carbonyl]-piperidine-4-carboxylic Acid Ethyl Ester], the EC50 ([1]; read-out: EC50(β3)) was 0.089 µM, the “IA(β3)” value [1] was 1.34 and the melting point was 69 to 71 °C.
In the case of O=C(NCc1cc(F)cc(F)c1)N1CCC(Nc2ccc(CCNC[C@H](O)COc3ccc(O)cc3)cc2)CC1 [Example 24, 4-(4-{2-[(2S)-2-Hydroxy-3-(4-hydroxy-phenoxy)-propylamino]-ethyl}-phenylamino)-piperidine-1-carboxylic Acid 3,5-difluoro-benzylamide], the EC50 ([1]; read-out: EC50(β3)) is reported as 0.04 µM, the “IA(β3)” value [1] is reported as 0.84 and the melting point is reported as 89 to 95 °C.
For COc1cc(OCCCOc2ccccc2)ccc1CCNC(=O)N1CCC(Nc2ccc(CCNC[C@H](O)COc3ccc(O)cc3)cc2)CC1 [Example 71, 4-(4-{2-[(2S)-2-Hydroxy-3-(4-hydroU-phenoxy)-propylamino]-ethyl}-phenylamino)-piperidine-1-carboxylic Acid {2-[2-methoxy-4-(3-phenoxy-propoxy)-phenyl]-ethyl}-amide], the EC50 ([1]; read-out: EC50(β3)) was 0.14 µM, the “IA(β3)” value [1] was 0.94 and the melting point was 67 to 69 °C.
